Measured values reported in paper PMC8778818, “Synthesis, Structural Characterization and Anticancer Activity of New 5-Trifluoromethyl-2-thioxo-thiazolo[4,5-d]pyrimidine Derivatives” (Pharmaceuticals, 2022).

Tests used:
A375 = assay: MTT cell viability assay, A375; assay type: cell-based, human; conditions: A375, MTT, mean ± SD
Procedure: (§1) Twelve compounds (2a-e, 3a-d and 4a-c) at a concentration range of 50–5000 μM were tested for their antiproliferative potential against four human cancer cell lines (A375—melanotic melanoma, C32—amelanotic melanoma, DU145—prostate cancer androgen-independent, MCF-7/WT—breast adenocarcinoma) and two normal cell lines: Chinese Hamster Ovary (CHO-K1) and immortalized human keratinocytes from histologically normal skin (HaCaT).
(§2) To determine the antiproliferative activity of newly synthesized compounds, the following cell lines were used: human melanotic melanoma cell line (A375), human amelanotic melanoma cell line (C32), human breast adenocarcinoma cell line (MCF-7/WT), human prostate cancer androgen-independent (DU145) and two normal cell lines: hamster ovarian (CHO-K1) and immortalized human keratinocytes from histologically normal skin (HaCaT). The cells were obtained from the cell line bank of the Department of Molecular and Cellular Biology, Wroclaw Medical University. A375, C32, MCF-7/WT, DU145 and HaCaT cells were grown in a monolayer cultured in Dulbecco’s Modified Eagle’s Medium (DMEM, Sigma-Aldrich, Poznań, Poland), supplemented with 10% of fetal bovine serum (FBS, Gibco, Paisley, UK) and 1% of antibiotics (penicillin/streptomycin, Sigma-Aldrich) and CHO-K1 were grown in HAM’s F-12 medium (Sigma-Aldrich), supplemented with 10% fetal bovine serum (FBS, Gibco) and 1% of antibiotics (penicillin/streptomycin, Sigma-Aldrich). Cell lines were cultured in the polystyrene flasks 25 or 75 cm^2 (Thermo Fisher Scientific, Waltham, MA, USA), which were stored in 37 °C and 5% CO2 in a humidified 95% atmosphere (SteriCult, Thermo Scientific, Alab). The cell medium was exchanged twice a week. The exponentially growing cells were used throughout the experiments. The cells were rinsed with phosphate-buffered saline (PBS, Sigma-Aldrich) and trypsinized by Trypsin-EDTA 0.25% solution (Sigma-Aldrich).
(§3) The influence of the compounds was performed in a monolayer culture on cancer and normal cells. Compounds were initially dissolved in DMSO; further dilutions of the compound were performed in Dulbecco’s Modified Eagle’s Medium supplemented with 10% FBS. Compounds were tested in a 50–5000 µM concentration range. In the in vitro experiments, the concentrations of DMSO in the final solution of the compounds were used 0.05%; 0.1%; 0.5%; 1%, respectively.
(§4) Cell viability was determined using the MTT colorimetric assay. All cell lines were seeded into 96-well plates to a density of 3 × 10^4 cells/well. After 24 h, the culture supernatants were removed and appropriate dilutions of compounds in the culture medium (200 µL/well) were added to the cells’ monolayer cultures and incubated for an additional 72 h. After 72 h of exposition to the compounds and the removal of the culture medium, cell viability was determined by reducing the yellow dye 3-(4,5-dimethyl-2-thiazol)-2,5-diphenyl-2H-tetrazolium bromide (MTT assay, Sigma Saint Louis, MO, USA; In Vitro Toxicology Assay) to a blue formazan product. The absorbance of the resulting solutions in three duplicate experiments was measured at the wavelength of 560 nm in a microplate reader (EnSpire, Perkin Elmer, Kraków, Poland). MTT assay is a colorimetric method that estimates the rate of metabolism in viable cells. Absorbance is directly proportional to the number of viable cells. All the experiments were performed three times and the mean absorbance values were calculated. The methodology for the evaluation of the growth of human cancer and normal cells was described previously. The cell viability in each group was expressed as a percentage of control (untreated) cells.

C32 = assay: MTT cell viability assay, C32; assay type: cell-based, human; conditions: for IC50: Homo sapiens, C32, MTT, 72 h, mean ± SD; for cytotoxic effect (in words): C32, 72 h
Procedure: as §1, §2, §3, §4

DU145 = assay: MTT cell viability assay, DU145; assay type: cell-based, human; conditions: for IC50: Homo sapiens, DU-145, DU145, MTT, 72 h, mean ± SD; for cytotoxic effect (in words): DU145, 72 h
Procedure: as §1, §2, §3, §4

MCF-7/WT = assay: MTT cell viability assay, MCF-7/WT; assay type: cell-based; conditions: Homo sapiens, MCF7, 72 h, mean ± SD
Procedure: as §1, §2, §3, §4

CHO-K1 = assay: MTT cell viability assay, CHO-K1; assay type: cell-based, Chinese Hamster; conditions: CHO-K1 normal cells, 72 h; for IC50: Cricetulus griseus, MTT, mean ± SD
Procedure: as §1, §2, §3, §4

HaCaT = assay: MTT cell viability assay, HaCaT; assay type: cell-based, human; conditions: 72 h; for IC50: Homo sapiens, HaCaT normal cells, MTT, mean ± SD; for cytotoxic effect (in words): HaCaT human keratinocytes
Procedure: as §1, §2, §3, §4

[1] = tested on: A375, C32, DU145, MCF-7/WT, CHO-K1 and HaCaT cell lines; assay: MTT cell viability assay, all six cell lines; assay type: cell-based; conditions: mean over the six cell lines; read-out: Mean A: the mean IC50 for the given compound
Procedure: as §1, §2, §3, §4

[2] = tested on: 60 human cancer cell lines; set-up: method as in PMID 579132; conditions: cited from earlier work; for Mean Growth %: 10^−5 M one dose, mean over the panel, analogs I–VII; for N2: number of cell lines giving positive log TGI (≤−4.01): of N = 59 tested cell lines; for N2: number of cell lines giving positive log TGI (≤−4.01) / log GI50 Range / log LC50 Range / log TGI Range: analogs IV and V; for log GI50 Range / log LC50 Range / log TGI Range: values > −4.00 excluded
HOP-92 = tested on: HOP-92; set-up: method as in PMID 579132; conditions: NS Cell Lung C. HOP-92, 10^−5 M one dose; cited from earlier work
UO-31 = tested on: UO-31; set-up: method as in PMID 579132; conditions: Renal C. UO-31, 10^−5 M one dose; cited from earlier work
RPMI-8226 = tested on: RPMI-8226; set-up: method as in PMID 579132; conditions: Leukemia, 10^−5 M one dose; cited from earlier work
UACC-62 = tested on: UACC-62; set-up: method as in PMID 579132; conditions: Melanoma UACC-62, 10^−5 M one dose; cited from earlier work
SF-295 = tested on: SF-295; set-up: method as in PMID 579132; conditions: CNS C. SF-295, 10^−5 M one dose; cited from earlier work
CAKI-1 = tested on: CAKI-1; set-up: method as in PMID 579132; conditions: Renal C. CAKI-1, 10^−5 M one dose; cited from earlier work

Compound | IC50 (A375; Homo sapiens, A-375, 72 h) [µM] | IC50 (DU145) [µM] | IC50 (MCF-7/WT) [µM] | IC50 (C32) [µM] | IC50 (CHO-K1) [µM] | IC50 (HaCaT) [µM] | IC50 [1] [µM] | Mean Growth % [2] [%] | further results
CCn1c(=S)sc2c(=O)[nH]c(C(F)(F)F)nc21 [Compound 2a, 3-ethyl-2-thioxo-5-(trifluoromethyl)-2,3-dihydro[1, 3]thiazolo[4,5-d]pyrimidin-7(6H)-one] | 429 ± 17.5 | 251 ± 10.2 | 519 ± 21.1 | 434 ± 17.7 | 521 ± 21.2 | 615 ± 25 | 462 | – | –
O=c1[nH]c(C(F)(F)F)nc2c1sc(=S)n2-c1ccccc1F [Compound 2c, 3-(2-fluoropheny)l-2-thioxo-5-(trifluoromethyl)-2,3-dihydro[1, 3]thiazolo[4,5-d]pyrimidin-7(6H)-one] | 450 ± 17.6 | 163 ± 6.4 | 420 ± 16.5 | 364 ± 14.3 | 525 ± 20.6 | 543 ± 21.3 | 411 | – | melting point: 211 to 212 °C
O=c1[nH]c(C(F)(F)F)nc2c1sc(=S)n2-c1cccc(F)c1 [Compound 2d, 3-(3-fluorophenyl)-2-thioxo-5-(trifluoromethyl)-2,3-dihydro[1, 3]thiazolo[4,5-d]pyrimidin-7(6H)-one] | 531 ± 22.4 | 121 ± 5.1 | 519 ± 21.9 | 384 ± 16.2 | 553 ± 23.3 | 725 ± 30.6 | 472 | – | –
O=c1[nH]c(C(F)(F)F)nc2c1sc(=S)n2-c1ccc(F)cc1 [Compound 2e, 3-(4-fluoropheny)l-2-thioxo-5-(trifluoromethyl)-2,3-dihydro[1, 3]thiazolo[4,5-d]pyrimidin-7(6H)-one] | 379 ± 13.5 | 139 ± 5 | 434 ± 15.5 | 355 ± 12.6 | 483 ± 17.2 | 234 ± 8.3 | 337 | – | melting point: 259 to 260 °C
O=c1[nH]c(-c2cccnc2)nc2c1sc(=S)n2-c1ccccc1 [III] | – | – | – | – | – | – | – | 105.59 | Growth % of the most sensitive cell line (HOP-92): 73.81%
O=c1[nH]c(-c2ccc(F)cc2)nc2c1sc(=S)n2-c1ccccc1 [II] | – | – | – | – | – | – | – | 106.11 | Growth % of the most sensitive cell line (HOP-92): 55.97%
S=c1sc2c(Cl)nc(-c3cccnc3)nc2n1-c1ccccc1 [IV] | – | – | – | – | – | – | – | 20.78 | log TGI Δ ([2]; logarithmic difference between most sensible cell line and MG_MID, analog IV): 1.12; N2: number of cell lines giving positive log TGI (≤−4.01) [2]: 7; log GI50 Range [2]: −5.28 to −6.26 log M; log LC50 Range [2]: −5.17 to −5.26 log M; log TGI Range [2]: −4.52 to −5.51 log M; Growth % of the most sensitive cell line (UO-31): −85.59%
O=c1[nH]c(-c2ccc(Cl)cc2)nc2c1sc(=S)n2-c1ccccc1 [I] | – | – | – | – | – | – | – | 80.85 | Growth % of the most sensitive cell line (RPMI-8226): 29.76%
Fc1ccc(CNc2nc(-c3ccc(F)cc3)nc3c2sc(=S)n3-c2ccccc2)cc1 [VII] | – | – | – | – | – | – | – | 89.50 | Growth % of the most sensitive cell line (UACC-62): 54.52%
Fc1ccc(CNc2nc(-c3ccc(Cl)cc3)nc3c2sc(=S)n3-c2ccccc2)cc1 [VI] | – | – | – | – | – | – | – | 48.46 | Growth % of the most sensitive cell line (SF-295): −43.11%
Fc1ccc(-c2nc(Cl)c3sc(=S)n(-c4ccccc4)c3n2)cc1 [V] | – | – | – | – | – | – | – | – | N2: number of cell lines giving positive log TGI (≤−4.01) [2]: 49; log GI50 Range [2]: −4.23 to −8.00 log M; log LC50 Range [2]: −4.07 to −5.42 log M; log TGI Range [2]: −4.10 to −5.90 log M; Growth % of the most sensitive cell line (CAKI-1): −88.95%

Continued, in another order:

IC50 (A375; Homo sapiens, A-375, 72 h) [µM] | IC50 (DU145) [µM] | IC50 (MCF-7/WT) [µM] | Compound | IC50 (C32) [µM] | IC50 (CHO-K1) [µM] | IC50 (HaCaT) [µM] | IC50 [1] [µM] | Mean Growth % [2] [%] | further results
142 ± 3.6 | 72.5 ± 1.9 | 356 ± 9.1 | CCn1c(=S)sc2c(Cl)nc(C(F)(F)F)nc21 [Compound 3a, 7-chloro-3-ethyl-5-(trifluoromethyl)[1, 3]thiazolo[4,5-d]pyrimidine-2(3H)-thione] | 89.3 ± 2.3 | 122 ± 3.1 | 88.3 ± 2.3 | 145 | – | cytotoxic effect (in words) (C32): strong cytotoxic effect; cytotoxic effect (in words) (DU145): strong cytotoxic effect; cytotoxic effect (in words) (HaCaT): strong cytotoxic effect; melting point: 66 to 67 °C
108 ± 2.6 | 168 ± 4 | 248 ± 6 | Fc1ccccc1-n1c(=S)sc2c(Cl)nc(C(F)(F)F)nc21 [Compound 3c, 7-chloro-(2-fluoropheny)-5-(trifluoromethyl)[1, 3]thiazolo[4,5-d]pyrimidine-2(3H)-thione] | 86.4 ± 2.1 | 93.8 ± 2.3 | 37.8 ± 0.9 | 124 | – | cytotoxic effect (in words) (C32): strong cytotoxic effect; cytotoxic effect (in words) (CHO-K1): strong cytotoxic effect; cytotoxic effect (in words) (HaCaT): strong cytotoxic effect
103 | 126 ± 4.2 | 540 ± 17.9 | Fc1cccc(-n2c(=S)sc3c(Cl)nc(C(F)(F)F)nc32)c1 [Compound 3d, 7-chloro-(3-fluoropheny)-5-(trifluoromethyl)[1, 3]thiazolo[4,5-d]pyrimidine-2(3H)-thione] | 87.4 ± 2.9 | 512 ± 17 | 360 ± 11.9 | 288 | – | IC50 (A375; 72 h): 104 ± 3.4 µM; cytotoxic effect (in words) (C32): strong cytotoxic effect; cytotoxic effect (in words) (CHO-K1): non-toxic; cytotoxic effect (in words) (HaCaT): non-toxic
114 ± 3.5 | 96.9 ± 3 | 144 ± 4.4 | CNc1nc(C(F)(F)F)nc2c1sc(=S)n2-c1ccccc1 [Compound 4a, 7-(methylamino)-3-phenyl-5-(trifluoromethyl)[1, 3]thiazolo[4,5-d]pyrimidine-2(3H)-thione] | 132 ± 4.1 | 48.5 ± 1.5 | 748 ± 22.9 | 214 | – | cytotoxic effect (in words) (DU145): high cytotoxicity; cytotoxic effect (in words) (CHO-K1): high cytotoxicity; melting point: 197 to 198 °C
